Results from patent US20240262814A1, “MODULATORS OF TREX1” (Constellation Pharmaceuticals, Inc., priority 2021, published 2024).

How the values were obtained:
[1] = biological target: T1, mouse TREX1 (Mus musculus, UniProt Q91XB0); experiment: mTREX1 Biochemical Assay (fluorescence, dsDNA substrate degradation); details: full length mouse TREX1, 4 h pre-incubation, 18 h reaction at 25° C.
T1 construct: N-terminally His-Tev tagged full length mouse TREX1; made in house; host or cells: E. coli
T1 sequence (Q91XB0 1-314): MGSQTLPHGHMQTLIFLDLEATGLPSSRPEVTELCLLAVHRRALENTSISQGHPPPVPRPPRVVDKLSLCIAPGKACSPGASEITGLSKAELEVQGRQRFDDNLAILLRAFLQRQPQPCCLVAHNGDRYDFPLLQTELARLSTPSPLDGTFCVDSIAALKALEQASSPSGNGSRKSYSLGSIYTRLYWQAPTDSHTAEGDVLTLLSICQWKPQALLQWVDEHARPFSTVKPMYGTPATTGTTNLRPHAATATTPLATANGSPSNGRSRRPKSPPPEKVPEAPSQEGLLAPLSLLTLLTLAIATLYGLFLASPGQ
Description: (§1) Degradation of the dsDNA liberates free fluorophore to produce a fluorescent signal. Specifically, 7.5 p L of N-terminally His-Tev tagged full length mouse TREX1 (expressed in E. coli and purified in house) in reaction buffer (50 mM Tris, 150 mM NaCl, 2 mM DTT, 0.1 mg/mL BSA, 0.01% (w/v) Tween-20, 5 mM MgCl2, pH 7.4) was added to a 384-well Black ProxiPlate Plus (PerkinElmer) which already contained compound (150 nL) at varying concentrations as a 10 point dose-response in DMSO. The plate was incubated at 25° C. for 4 hours. Reactions were initiated by adding 7.5 μL of dsDNA substrate (Strand A: 5′ TEX615/GCT AGG CAG 3′; Strand B: 5′ CTG CCT AGC/IAbRQSp (Integrated DNA Technologies)) in reaction buffer. Final concentrations were 6 pM TREX1, 60 nM dsDNA substrate in reaction buffer with 1.0% DMSO (v/v). After 18 hours at 25° C., reactions were quenched by the addition of 2 p L of 500 mM EDTA. Final concentrations in the quenched reaction were 5.3 pM TREX1, 53 nM DNA and 59 mM EDTA in a volume of 17 p L. After a 5-minute incubation at room temperature, plates were read in an EnVision plate reader (PerkinElmer) measuring fluorescence at 615 nm following excitation w/ 570 nm light. IC50 values were calculated by comparing the measured fluorescence at 615 nm relative to control wells pre-quenched w/ EDTA (100% inhibition) and no inhibitor (0% inhibition) controls as using non-linear least square four parameter fits and either Genedata or GraphPad Prism (GraphPad Software, Inc.).

[2] = biological target: T2, human TREX2 (Homo sapiens, UniProt Q9BQ50); experiment: hTREX2 Biochemical Assay (selectivity hTREX1 vs hTREX2); details: biochemical selectivity for hTREX1 vs hTREX2
T2 construct: human TREX2 (residues M44-A279, expressed in E. coli); made in house; host or cells: E. coli
T2 sequence (Q9BQ50 44-279 isoform Q9BQ50-1): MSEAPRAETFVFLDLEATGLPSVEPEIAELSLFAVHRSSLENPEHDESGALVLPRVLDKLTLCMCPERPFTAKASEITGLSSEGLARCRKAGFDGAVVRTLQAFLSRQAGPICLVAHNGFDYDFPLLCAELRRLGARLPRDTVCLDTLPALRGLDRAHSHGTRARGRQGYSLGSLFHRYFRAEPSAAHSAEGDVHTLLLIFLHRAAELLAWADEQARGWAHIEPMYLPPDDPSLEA
Description: Degradation of the dsDNA liberates free fluorophore to produce a fluorescent signal. Specifically, 7.5 p L of N-terminally His-Tev tagged human TREX2 (residues M44-A279, expressed in E. coli and purified in house) in reaction buffer (50 mM Tris, 150 mM NaCl, 2 mM DTT, 0.1 mg/mL BSA, 0.01% (w/v) Tween-20, 5 mM MgCl2, pH 7.4) was added to a 384-well Black ProxiPlate Plus (PerkinElmer) which already contained compound (150 nL) at varying concentrations as a 10 point dose-response in DMSO. The plate was incubated at 25° C. for 4 hours. Reactions were initiated by adding 7.5 μL of dsDNA substrate (Strand A: 5′ TEX615/GCT AGG CAG 3′; Strand B: 5′ CTG CCT AGC/IAbRQSp (IDT)) in reaction buffer. Final concentrations were 50 pM TREX2, 60 nM dsDNA substrate in reaction buffer with 1.0% DMSO (v/v). After 18 hours at 25° C., reactions were quenched by the addition of 2 μL of 500 mM EDTA. Final concentrations in the quenched reaction mixture were 44 pM TREX2, 53 nM DNA and 59 mM EDTA in a volume of 17 μL. After a 5-minute incubation at room temperature, plates were read in an EnVision plate reader (PerkinElmer) measuring fluorescence at 615 nm following excitation w/ 570 nm light. IC50 values were calculated by comparing the measured fluorescence at 615 nm relative to control wells pre-quenched w/ stop buffer (100% inhibition) and no inhibitor (0% inhibition) controls as using non-linear least square four parameter fits and either Genedata or GraphPad Prism (GraphPad Software, Inc.).

[3] = biological target: T3, human TREX1 (Homo sapiens, UniProt Q9NSU2); experiment: hTREX1 Biochemical Assay (fluorescence, dsDNA substrate degradation); details: full length human TREX1, 4 h pre-incubation, 18 h reaction at 25° C.
T3 construct: N-terminally His-Tev tagged full length human TREX1; made in house; host or cells: E. coli
T3 sequence (Q9NSU2 1-314): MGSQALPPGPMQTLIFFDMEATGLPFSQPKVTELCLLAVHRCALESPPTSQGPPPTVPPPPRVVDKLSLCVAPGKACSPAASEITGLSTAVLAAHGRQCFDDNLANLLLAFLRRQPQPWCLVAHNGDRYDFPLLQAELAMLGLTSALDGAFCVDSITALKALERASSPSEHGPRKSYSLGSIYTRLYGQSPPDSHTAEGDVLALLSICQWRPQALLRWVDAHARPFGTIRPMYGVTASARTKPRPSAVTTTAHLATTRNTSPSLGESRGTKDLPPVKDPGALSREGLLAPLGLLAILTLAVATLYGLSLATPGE
Description: as §1, with “7.5 μL” for “7.5 p L”, “length human” for “length mouse”, “were 4” for “were 6”, “were 3.5” for “were 5.3”, “17 μL.” for “17 p L.”

SMILES | IC50 [1] [nM] | hTREX1 vs hTREX2 selectivity [2] | IC50 [3] [nM]
C[C@H](c1nc(C(=O)Nc2cnoc2)c(O)c(=O)n1C)[C@H](c1ccccc1)c1ccccc1Cl (single isomer, unassigned) [Example 2 Isomer 2, 2-(1-(2-chlorophenyl)-1-phenylpropan-2-yl)-5-hydroxy-N-(isoxazol-4-yl)-1-methyl-6-oxo-1,6-dihydropyrimidine-4-carboxamide] | > 10 | A (A = <25 fold selective for hTREX1) | 10 to 100
C[C@H](c1nc(C(=O)Nc2cnoc2)c(O)c(=O)n1C)[C@H](c1ccccc1)c1ccccc1Cl (single isomer, unassigned) [Example 2 Isomer 4, 2-(1-(2-chlorophenyl)-1-phenylpropan-2-yl)-5-hydroxy-N-(isoxazol-4-yl)-1-methyl-6-oxo-1,6-dihydropyrimidine-4-carboxamide] | > 10 | A (A = <25 fold selective for hTREX1) | > 100
CC(c1nc(C(=O)Nc2cnoc2)c(O)c(=O)n1C)C(c1ccccc1)c1ccccc1C#N (single isomer, unassigned) [Example 3 Isomer 1] | > 10 | B (B = 25 to 50 fold selective for hTREX1) | 1 to 10
CC(c1nc(C(=O)Nc2cnoc2)c(O)c(=O)n1C)C(c1ccccc1)c1ccccc1C#N (single isomer, unassigned) [Example 3 Isomer 2] | > 10 | A (A = <25 fold selective for hTREX1) | > 100
CC(c1nc(C(=O)Nc2cnoc2)c(O)c(=O)n1C)C(c1ccccc1)c1ccccc1C#N (single isomer, unassigned) [Example 3 Isomer 3] | > 10 | A (A = <25 fold selective for hTREX1) | > 100
CC(c1nc(C(=O)Nc2cnoc2)c(O)c(=O)[nH]1)C(c1ccccc1C#N)c1ccccc1C#N (single isomer, unassigned) [Example 5 Isomer 1, 2-(1,1-bis(2-cyanophenyl)propan-2-yl)-5-hydroxy-N-(isoxazol-4-yl)-6-oxo-1,6-dihydropyrimidine-4-carboxamide] | 1 to 10 | B (B = 25 to 50 fold selective for hTREX1) | < 1
CC(c1nc(C(=O)Nc2cnoc2)c(O)c(=O)n1C)C(c1ccccc1)c1cc(F)ccc1C#N (single isomer, unassigned) [Example 6 Isomer 1] | > 10 | C (C = >50 fold selective for hTREX1) | 1 to 10
CC(c1nc(C(=O)Nc2cnoc2)c(O)c(=O)n1C)C(c1ccccc1)c1cc(F)ccc1C#N (single isomer, unassigned) [Example 6 Isomer 3] | > 10 | A (A = <25 fold selective for hTREX1) | > 100
CC(c1nc(C(=O)Nc2cnoc2)c(O)c(=O)n1C)C(c1ccccc1)c1ccc(F)cc1C#N (single isomer, unassigned) [Example 7 Isomer 1] | > 10 | C (C = >50 fold selective for hTREX1) | < 1
CC(c1nc(C(=O)Nc2cnoc2)c(O)c(=O)n1C)C(c1ccccc1)c1ccc(F)cc1C#N (single isomer, unassigned) [Example 7 Isomer 2] | > 10 | A (A = <25 fold selective for hTREX1) | > 100
CC(c1nc(C(=O)Nc2cnoc2)c(O)c(=O)n1C)C(c1ccccc1)c1ccc(F)cc1C#N (single isomer, unassigned) [Example 7 Isomer 4] | 1 to 10 | B (B = 25 to 50 fold selective for hTREX1) | < 1
CC(c1nc(C(=O)Nc2cnoc2)c(O)c(=O)n1C)C(c1ccccc1)c1cc(Cl)ccc1C#N (single isomer, unassigned) [Example 8 Isomer 3] | > 10 | C (C = >50 fold selective for hTREX1) | 1 to 10
CC(c1nc(C(=O)Nc2cnoc2)c(O)c(=O)n1C)C(c1ccccc1)c1cc(Cl)ccc1C#N (single isomer, unassigned) [Example 8 Isomer 4] | > 10 | B (B = 25 to 50 fold selective for hTREX1) | 10 to 100
CC(c1nc(C(=O)Nc2cnoc2)c(O)c(=O)n1C)C(c1ccccc1)c1ccc(Cl)cc1C#N (single isomer, unassigned) [Example 9 Isomer 1] | > 10 | C (C = >50 fold selective for hTREX1) | 1 to 10
CC(c1nc(C(=O)Nc2cnoc2)c(O)c(=O)n1C)C(c1ccccc1)c1ccc(Cl)cc1C#N (single isomer, unassigned) [Example 9 Isomer 2] | > 10 | B (B = 25 to 50 fold selective for hTREX1) | > 100
